Test results taken from ChEMBL document CHEMBL1201862, “PubChem BioAssay data set” (2004).
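Protocol summary: plate cells (96-well), add compound at 5 concentrations, incubate 48 h, interpolate endpoints linearly. Abbreviation: GI50, concentration required for 50% inhibition of growth.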 The source made the active and inactive calls. No stated cut-off is given here; in the data, active = GI50 up to about 1.1 µM and inactive = higher.

Legend:
Experiment in all cases: NCI tumour cell line growth inhibition, 48 h
[1] = test system: 786-0
[2] = test system: A498
[3] = test system: A549
[4] = test system: ACHN
[5] = test system: CAKI-1
[6] = test system: CCRF-CEM
[7] = test system: DLD-1
[8] = test system: DMS-114
[9] = test system: EKVX
[10] = test system: HCC 2998
[11] = test system: HCT-116
[12] = test system: HCT-15
[13] = test system: HL-60
[14] = test system: HOP-92
[15] = test system: HT-29
[16] = test system: IGROV-1
[17] = test system: K562
[18] = test system: KM-20L2
[19] = test system: KM12
[20] = test system: LOX IMVI
[21] = test system: M14
[22] = test system: MOLT-4
[23] = test system: Malme-3M
[24] = test system: NCI-H226
[25] = test system: NCI-H23
[26] = test system: NCI-H460
[27] = test system: OVCAR-4
[28] = test system: OVCAR-5
[29] = test system: OVCAR-8
[30] = test system: RPMI-8226
[31] = test system: RXF 393
[32] = test system: SF-268
[33] = test system: SF-295
[34] = test system: SF-539
[35] = test system: SK-MEL-2
[36] = test system: SK-MEL-5
[37] = test system: SK-OV-3
[38] = test system: SN12C
[39] = test system: SNB-19
[40] = test system: SNB-75
[41] = test system: SNB-78
[42] = test system: SR
[43] = test system: SW-620
[44] = test system: TK-10
[45] = test system: U-251
[46] = test system: UACC-257
[47] = test system: UO-31
[48] = test system: BT-549
[49] = test system: COLO 205
[50] = test system: DU-145
[51] = test system: HOP-62
[52] = test system: Hs-578T
[53] = test system: MCF7
[54] = test system: MDA-MB-231
[55] = test system: MDA-MB-435
[56] = test system: MDA-N
[57] = test system: NCI-H522
[58] = test system: NCI/ADR-RES
[59] = test system: OVCAR-3
[60] = test system: PC-3
[61] = test system: SK-MEL-28
[62] = test system: T47D
[63] = test system: UACC-62

With `Oc1ccc(Br)cc1/C=N/c1ccc(/N=C/c2cc(Br)ccc2O)cc1` the GI50 [1] was > 100 µM (inactive), the GI50 [2] was > 100 µM (inactive) and the GI50 [3] was > 100 µM (inactive). The GI50 [4] was > 100 µM (inactive), the GI50 [5] was > 100 µM (inactive) and the GI50 [6] was > 100 µM (inactive). For the same molecule, the GI50 [7] was > 100 µM (inactive), the GI50 [8] was > 100 µM (inactive) and the GI50 [9] was > 100 µM (inactive). For the same molecule, the GI50 [10] was > 100 µM (inactive), the GI50 [11] was > 100 µM (inactive) and the GI50 [12] was greater than 100000 nM. The GI50 [13] was > 100 µM (inactive), the GI50 [14] was > 100 µM (inactive) and the GI50 [15] was > 100 µM (inactive). For the same molecule, the GI50 [16] was > 100 µM (inactive), the GI50 [17] was > 100 µM (inactive) and the GI50 [18] was > 100 µM (inactive). The GI50 [19] was > 100 µM (inactive), the GI50 [20] was > 100 µM (inactive) and the GI50 [21] was > 100 µM (inactive). For the same molecule, the GI50 [22] was > 100 µM (inactive), the GI50 [23] was > 100 µM (inactive) and the GI50 [24] was > 100 µM (inactive). For the same molecule, the GI50 [25] was > 100 µM (inactive), the GI50 [26] was > 100 µM (inactive) and the GI50 [27] was > 100 µM (inactive). The GI50 [28] was > 100 µM (inactive), the GI50 [29] was > 100 µM (inactive) and the GI50 [30] was > 100 µM (inactive). The GI50 [31] was > 100 µM (inactive), the GI50 [32] was > 100 µM (inactive) and the GI50 [33] was > 100 µM (inactive). For the same molecule, the GI50 [34] was > 100 µM (inactive), the GI50 [35] was > 100 µM (inactive) and the GI50 [36] was > 100 µM (inactive). For the same molecule, the GI50 [37] was > 100 µM (inactive), the GI50 [38] was > 100 µM (inactive) and the GI50 [39] was > 100 µM (inactive). For the same molecule, the GI50 [40] was > 100 µM (inactive), the GI50 [41] was > 100 µM (inactive) and the GI50 [42] was > 100 µM (inactive). For the same molecule, the GI50 [43] was > 100 µM (inactive), the GI50 [44] was > 100 µM (inactive) and the GI50 [45] was > 100 µM (inactive). The GI50 [46] was > 100 µM (inactive) and the GI50 [47] was > 100 µM (inactive).
In the case of `CN(C)c1ccc2cc3ccc(N(C)C)cc3nc2c1` [ACRIDINE ORANGE], the GI50 [1] is reported as 0.638 µM (active), the GI50 [2] is reported as 4.08 µM (inactive) and the GI50 [3] is reported as 0.927 µM (active). The GI50 [4] was 0.611 µM (active), the GI50 [48] was 6.78 µM (inactive) and the GI50 [5] was 1.79 µM (inactive). For the same molecule, the GI50 [6] was 0.678 µM (active), the GI50 [49] was 975 nM (active) and the GI50 [50] was 1.32 µM (inactive). For the same molecule, the GI50 [9] was 1.87 µM (inactive), the GI50 [10] was 0.56 µM (active) and the GI50 [11] was 0.316 µM (active). The GI50 [12] was 467 nM, the GI50 [13] was 0.331 µM (active) and the GI50 [51] was 2.02 µM (inactive). The GI50 [14] was 4.32 µM (inactive), the GI50 [15] was 0.403 µM (active) and the GI50 [52] was 2.5 µM (inactive). For the same molecule, the GI50 [16] was 2.2 µM (inactive), the GI50 [17] was 0.397 µM (active) and the GI50 [19] was 0.488 µM (active). For the same molecule, the GI50 [20] was 1.31 µM (inactive), the GI50 [21] was 3.05 µM (inactive) and the GI50 [53] was 714 nM (active). The GI50 [54] was 1.19 µM (inactive), the GI50 [55] was 1.79 µM (inactive) and the GI50 [56] was 1.19 µM (inactive). For the same molecule, the GI50 [22] was 0.134 µM (active), the GI50 [23] was 3.86 µM (inactive) and the GI50 [24] was 5.09 µM (inactive). The GI50 [25] was 1.51 µM (inactive), the GI50 [26] was 0.393 µM (active) and the GI50 [57] was 1.58 µM (inactive). For the same molecule, the GI50 [58] was 1.43 µM (inactive), the GI50 [59] was 2.95 µM (inactive) and the GI50 [27] was 0.853 µM (active). For the same molecule, the GI50 [28] was 2.75 µM (inactive), the GI50 [29] was 1.56 µM (inactive) and the GI50 [60] was 2.04 µM (inactive). For the same molecule, the GI50 [30] was 0.527 µM (active), the GI50 [31] was 3.74 µM (inactive) and the GI50 [32] was 1.52 µM (inactive). The GI50 [33] was 2.08 µM (inactive), the GI50 [34] was 1.88 µM (inactive) and the GI50 [61] was 3.37 µM (inactive). The GI50 [35] was 6.18 µM (inactive), the GI50 [36] was 1.99 µM (inactive) and the GI50 [37] was 5.85 µM (inactive). The GI50 [38] was 0.962 µM (active), the GI50 [39] was 0.984 µM (active) and the GI50 [40] was 2.1 µM (inactive). For the same molecule, the GI50 [42] was 0.0849 µM (active), the GI50 [43] was 0.49 µM (active) and the GI50 [62] was 12.1 µM (inactive). The GI50 [44] was 2.86 µM (inactive), the GI50 [45] was 1.24 µM (inactive) and the GI50 [46] was 3.98 µM (inactive). The GI50 [63] was 4.05 µM (inactive) and the GI50 [47] was 0.871 µM (active).
